SMILES strings stand for the structures. Like-named read-outs stand apart in the source and are kept apart here.

One experiment deals with T1, 5-HT1A receptor (Rattus norvegicus, UniProt P19327).
T1 construct: The brain is dissected and the cortex is homogenized in 20 volumes of Tris-HCl buffer; from tissue; host or cells: rat cerebral cortex homogenate
T1 sequence (P19327 1-422): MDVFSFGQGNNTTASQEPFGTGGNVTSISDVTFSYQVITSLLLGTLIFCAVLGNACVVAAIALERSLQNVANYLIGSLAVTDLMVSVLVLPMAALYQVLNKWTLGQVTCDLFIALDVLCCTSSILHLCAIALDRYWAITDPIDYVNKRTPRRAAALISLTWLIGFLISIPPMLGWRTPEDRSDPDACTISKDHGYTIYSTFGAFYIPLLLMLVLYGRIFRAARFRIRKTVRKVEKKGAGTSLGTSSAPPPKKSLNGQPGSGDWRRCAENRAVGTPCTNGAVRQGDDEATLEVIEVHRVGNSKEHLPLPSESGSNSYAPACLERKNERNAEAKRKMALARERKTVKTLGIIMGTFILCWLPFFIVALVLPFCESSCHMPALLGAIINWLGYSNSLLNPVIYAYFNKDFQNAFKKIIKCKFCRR
Nature of the experiment: Affinity for the receptor 5-HT1A: displacement of [3H]8-OH-DPAT in rat cerebral cortex. It is filed as binding. Conditions: [3H]8-OH-DPAT 0.2 nM, 23° C., 30 minutes, average of 3 to 5 experiments, read-out: pKi (affinity for the receptor 5-HT1A) (converted). The procedure: Thus, they were the object of a study relating to their affinity for serotoninergic receptors such as 5-HT1A.
The study of the bonding to the receptor 5-HT1A is carried out in the manner described by Sleight and Peroutka (Naunyn-Schmiedebergs Arch. Pharmacol. 343:106-116, 1991). For these experiments, rat cerebral cortices are used. The brain is dissected and the cortex is homogenized in 20 volumes of Tris-HCl buffer (50 mM, pH 7.4 at 25° C.) kept at 4° C. The homogenate is centrifuged at 39000 g for 10 minutes, the final product is suspended in the same volume of buffer and centrifuged again. After being again placed in suspension under the same conditions, the homogenate is incubated for 10 minutes at 37° C. and then centrifuged again. The final product is suspended in 80 volumes of reaction buffer containing pargyline (10^- 5M), CaCl2 (4 mM) and ascorbic acid (0.1%) in Tris-HCl (50 mM, pH 7.4 at 25° C.). The final concentration of tissue in the incubation medium is 10 mg/tube.
In the saturation experiments, the reaction tubes contain 0.1 ml of different concentrations of [^3 H]8--OH--DPAT (between 0.06 and 8 nM), 0.1 ml of reaction buffer 5-HT (10^-5 M, in order to determine the non-specific bond) and 0.8 ml of tissue.
The displacement experiments are carried out in the manner described by Sleight and Peroutka (Naunyn-Schmiedebergs Arch. Pharmacol. 343:106-116, 1991). All the dilutions of products to be studied are prepared in the reaction buffer. The reaction tubes contain 0.1 ml of [^3 H]8-OH-DPAT (0.2 nM), 0.1 ml of product to be tested 6-7 concentrations (successive dilutions to 1/10) and 0.8 ml of tissue. […] The radioactivity collected on the filter is analyzed in liquid scintillation by adding 4 ml of scintillating liquid (Emulsifier Safe, Packard). All the experiments are carried out in triplicate and repeated at least 3 times.
The dissociation constant (KD) and the maximum number of bond sites (Bmax) for the radioligand are estimated on the basis of the saturation experiments using the non-linear regression program EBDA/LIGAND (Biosoft) (Munson and Rodbard: Anal. Biochem. 107:220-239, 1980). The affinity constants (Ki) of the reference products are estimated on the basis of the displacement experiments using the EBDA/LIGAND non-linear regression program. […] The data of the displacement experiments are analyzed with the one-site and two-site models respectively and the calculated F makes it possible to determine whether the two-site model is more representative of the data obtained than the one-site model. The values of pKi are given in the form of the average ±SEM of 3 to 5 experiments.

Experiment [1] concerns the target T2, serotoninergic receptors of type 5-HT1A (Rattus norvegicus, UniProt P19327).
T2 construct: carried out on the male rat (Sprague-Dawley); from tissue; host or cells: whole living male Sprague-Dawley rat (in vivo test)
T2 sequence (P19327 1-422): T1 sequence (P19327 1-422)
Nature of the experiment: 5-HT syndrome (flat body posture, lower-lip retraction, fore-paw treading). It counts as in vivo. To be noted: ip, male Sprague-Dawley rat, i.p. The procedure:
The experiments of the evaluation of the 5-HT syndrome are carried out on the male rat (Sprague-Dawley) by the method described by F. C. Colpaert et al. (Drug. Dev. Res. 26:21-48, 1992).

Where [2] appears, read: FBP, read-out: ED50 FBP (flat body posture).
Where [3] appears, read: FPT, read-out: ED50 FPT (reciprocal fore-paw treading).
The mark [4] stands for this setting: LLR, read-out: ED50 LLR (lower-lip retraction).

`Cn1nc(NCCCCNCC2COc3ccccc3O2)c(=O)n(C)c1=O` (stereo not shown) [Compound 9, 2,4-dimethyl-3,5-dioxo-(2H,4H)-6-(4-(1,4-benzodioxan-2 ylmethylamino)butylamino)-1,2,4-triazine]: the Ki at 5-HT1A receptor is 2.69 nM.

Consider `CCCCn1c(=O)[nH]nc(NCCCCN2CCN(c3cccc(C(F)(F)F)c3)CC2)c1=O` [Compound 11, 4-butyl-3,5-dioxo-(2H, 4H)-6-(4-(4-(3-trifluoromethylphenyl)piperazino)butylamino)-1,2,4-triazine], for which the Ki on 5-HT1A receptor is 12.6 nM.

As usually defined, the ED50 is the dose at which the effect has come halfway, by size or by number of responders. On to `Cn1nc(NCCCCN2CCN(c3cccc(Cl)c3)CC2)c(=O)n(C)c1=O` [Compound 2, 2,4-dimethyl-3,5-dioxo-(2H,4H)-6-(4(4-(3-chlorophenyl)piperazino)butylamino)-1,2,4-triazine], for which the ED50 worked out at 0.31 mg/kg in experiment [1] (setting [2]), 40 mg/kg in experiment [1] (setting [3]) and 0.31 mg/kg in experiment [1] (setting [4]). Further, the Ki at 5-HT1A receptor is 0.398 nM.

`COc1ccccc1N1CCN(CCCCNc2nn(C)c(=O)n(C)c2=O)CC1` [Compound 3, 2,4-dimethyl-3,5-dioxo-(2H,4H)-6-(4-(4-(2-methoxyphenyl)piperazino)butylamino)-1,2,4-triazine]: the Ki at 5-HT1A receptor is 0.617 nM.

In the case of `Cn1nc(NCCCCN2CCN(c3cccc(C(F)(F)F)c3)CC2)c(=O)n(C)c1=O` [Compound 1, 2,4-dimethyl-3,5-dioxo-(2H, 4H)-6-(4-(4-(3-trifluoromethylphenyl)piperazino)butylamino)-1,2,4-triazine], the median effective dose (ED50) in experiment [1] (setting [2]), in experiment [1] (setting [3]) and in experiment [1] (setting [4]) was 0.31 mg/kg each time. For the same compound, at 5-HT1A receptor, the Ki is 0.316 nM.

Take `Cn1nc(NCCCN2CCN(c3cccc(C(F)(F)F)c3)CC2)c(=O)n(C)c1=O` [Compound 6, 2,4-dimethyl-3,5-dioxo-(2H,4H)-6-(3-(4-(3-trifluoromethylphenyl)piperazino)propylamino)-1,2,4-triazine]: the Ki on 5-HT1A receptor was 16.2 nM.

As to `O=C1CC2(CCCC2)CC(=O)N1CCCCN1CCN(c2ncccn2)CC1` [Buspirone, reference compound], the 50% effective dose (ED50) in experiment [1] (setting [2]) is 5 mg/kg; in experiment [1] (setting [3]), over 40 mg/kg; in experiment [1] (setting [4]), 1.25 mg/kg.

Turning to `Cn1nc(NCCCNCC2COc3ccccc3O2)c(=O)n(C)c1=O` (stereo not shown) [Compound 10, 2,4-dimethyl-3,5-dioxo-(2H, 4H)-6-(3-(1,4-benzodioxan-2 ylmethylamino)propylamino)-1,2,4-triazine], on 5-HT1A receptor, the Ki was 3.8 nM.

Values taken from patent publication US5591743A, “3,5-dioxo-(2H,4H)-1,2,4-triazine derivatives as 5HT1A ligands” (Pierre Fabre Medicament, priority 1993, dated 1997).
